Assay [1] addresses T1, Human Tryptophan 2,3-dioxygenase (TDO) (Homo sapiens, UniProt P48775).
T1 construct: His tag (N); made in house; host or cells: E. coli
Briefly: Human TDO enzymatic assay (kynurenine level). The format is biochemical. The following applies: 1 nM TDO, 350 μM L-Trp; geometric mean; read-out: TDO GMean: IC50 (μM) (Biochemical Assay). The method, boiled down:
(§1)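 N-terminally His-tagged enzymes expressed in E. coli were run in 50 mM sodium phosphate pH 6.5 with 10 mM ascorbate, catalase and Tween 20. IDO: 6 nM enzyme, 10 μM L-Trp, 5 μM methylene blue, 20 min RT. TDO: 1 nM enzyme, 350 μM L-Trp, 0.4 μM methylene blue, 70 min RT.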

In assay [2] the target is T2, Human Indoleamine 2,3-dioxygenase (IDO) (Homo sapiens, UniProt P14902).
T2 construct: His tag (N); made in house; host or cells: E. coli
Briefly: Human IDO enzymatic assay (kynurenine level). The format is biochemical. The following applies: 6 nM IDO, 10 μM L-Trp; geometric mean; read-out: IDO1 GMean: IC50 (μM) (Biochemical Assay). The method, boiled down: as §1

T1 sequence (P48775 whole entry): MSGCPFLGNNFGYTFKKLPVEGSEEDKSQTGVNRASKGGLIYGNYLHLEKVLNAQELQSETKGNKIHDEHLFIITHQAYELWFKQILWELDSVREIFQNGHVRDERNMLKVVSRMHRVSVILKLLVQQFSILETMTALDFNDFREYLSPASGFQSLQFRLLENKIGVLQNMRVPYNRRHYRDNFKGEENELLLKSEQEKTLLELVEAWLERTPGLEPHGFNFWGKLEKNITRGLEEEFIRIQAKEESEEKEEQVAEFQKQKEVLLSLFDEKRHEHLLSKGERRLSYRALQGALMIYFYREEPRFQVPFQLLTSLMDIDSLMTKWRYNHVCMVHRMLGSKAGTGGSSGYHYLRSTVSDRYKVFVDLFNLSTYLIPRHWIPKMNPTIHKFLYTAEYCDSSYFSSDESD
T2 sequence (P14902 whole entry): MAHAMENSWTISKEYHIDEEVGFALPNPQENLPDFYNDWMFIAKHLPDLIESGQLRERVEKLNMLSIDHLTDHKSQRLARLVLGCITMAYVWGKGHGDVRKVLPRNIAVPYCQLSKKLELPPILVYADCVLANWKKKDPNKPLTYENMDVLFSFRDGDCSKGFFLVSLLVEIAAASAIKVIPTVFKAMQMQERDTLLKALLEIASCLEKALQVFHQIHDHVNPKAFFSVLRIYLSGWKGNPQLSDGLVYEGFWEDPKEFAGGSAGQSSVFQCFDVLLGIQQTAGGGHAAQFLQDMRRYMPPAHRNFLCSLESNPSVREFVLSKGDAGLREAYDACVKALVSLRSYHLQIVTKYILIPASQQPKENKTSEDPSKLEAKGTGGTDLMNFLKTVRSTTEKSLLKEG

A word on the IC50: it is the midpoint of a concentration-inhibition curve. For `O=C(NCC1CC1)N1CCC(C(F)(F)[C@H](O)c2c3c(cc4cn[nH]c24)CC3)CC1` [Compound P-0631, (R)-N-(cyclopropylmethyl)-4-(2-(5,6-dihydro-1H-cyclobuta[f]indazol-7-yl)-1,1-difluoro-2-hydroxyethyl) piperidine-1-carboxamide], the IC50 in assay [1] and in assay [2] was 0.0001 to 10 µM in each case.
As to `O=C(Nc1cccnc1)N1CCC(C(F)(F)[C@H](O)c2c3c(cc4cn[nH]c24)CC3)CC1` [Compound P-0636, (R)-4-(2-(5,6-dihydro-1H-cyclobuta[f]indazol-7-yl)-1,1-difluoro-2-hydroxyethyl)-N-(pyridin-3-yl)piperidine-1-carboxamide], the IC50 in assay [1] and in assay [2] was 0.0001 to 10 µM each time.
On to `O=C(Nc1ccc(F)cc1)N1CCC(C(F)(F)[C@H](O)c2c3c(cc4cn[nH]c24)CC3)CC1` [Compound P-0637, (R)-4-(2-(5,6-dihydro-1H-cyclobuta[f]indazol-7-yl)-1,1-difluoro-2-hydroxyethyl)-N-(4-fluorophenyl) piperidine-1-carboxamide], for which the IC50 in assay [1] and in assay [2] was 0.0001 to 10 µM in each case.
Take `N#Cc1ccc(NC(=O)N2CCC(C(F)(F)[C@H](O)c3c4c(cc5cn[nH]c35)CC4)CC2)cc1` [Compound P-0638, (R)-N-(4-cyanophenyl)-4-(2-(5,6-dihydro-1H-cyclobuta[f]indazol-7-yl)-1,1-difluoro-2-hydroxyethyl) piperidine-1-carboxamide]: the IC50 in assay [1] and in assay [2] was 0.0001 to 10 µM each time.
In the case of `CC1(C(O)c2cc(Cl)c(F)c3cn[nH]c23)CC(F)(F)C1` (stereo not shown) [Compound P-0650, (5-chloro-4-fluoro-1H-indazol-7-yl)(3,3-difluoro-1-methylcyclobutyl)methanol], the IC50 in assay [1] and in assay [2] was 0.0001 to 10 µM each time.
With `O=C(Cc1ccnc(Cl)c1)N1CCC(C(F)(F)C(O)c2cc(Cl)cc3[nH]ncc23)CC1` (stereo not shown) [Compound P-0657, 1-(4-(2-(6-chloro-1H-indazol-4-yl)-1,1-difluoro-2-hydroxyethyl)piperidin-1-yl)-2-(2-chloropyridin-4-yl)ethan-1-one], the IC50 in assay [1] and in assay [2] was 0.0001 to 10 µM in each case.
For the molecule `CC(C)(C1CCN(C(=O)Nc2ccc(F)cn2)CC1)[C@H](O)c1cc(Cl)cc2cn[nH]c12` [Compound P-0658, (S)-4-(1-(5-chloro-1H-indazol-7-yl)-1-hydroxy-2-methylpropan-2-yl)-N-(5-fluoropyridin-2-yl)piperidine-1-carboxamide], the IC50 in assay [1] and in assay [2] was 0.0001 to 10 µM each time.
For the molecule `CC(C)(C1CCN(C(=O)C2(F)CC2)CC1)[C@H](O)c1cc(Cl)cc2cn[nH]c12` [Compound P-0659, (S)-(4-(1-(5-chloro-1H-indazol-7-yl)-1-hydroxy-2-methylpropan-2-yl)piperidin-1-yl)(1-fluorocyclopropyl) methanone], the IC50 in assay [1] and in assay [2] was 0.0001 to 10 µM each time.
For `CC(C)(C1CCN(C(=O)Nc2ccc(F)cc2)CC1)C(O)c1cc(Cl)cc2[nH]ncc12` (stereo not shown) [Compound P-0660, 4-(1-(6-chloro-1H-indazol-4-yl)-1-hydroxy-2-methylpropan-2-yl)-N-(4-fluorophenyl) piperidine-1-carboxamide], the IC50 in assay [1] and in assay [2] was 0.0001 to 10 µM in each case.
On to `CC(C)(C1CCN(C(=O)C2(F)CC2)CC1)C(O)c1cc(Cl)cc2[nH]ncc12` (stereo not shown) [Compound P-0661, (4-(1-(6-chloro-1H-indazol-4-yl)-1-hydroxy-2-methylpropan-2-yl)piperidin-1-yl)(1-fluorocyclopropyl) methanone], for which the IC50 in assay [1] and in assay [2] was 0.0001 to 10 µM each time.
Consider `CN(C)C(=O)N1CCC(C(C)(C)[C@H](O)c2cc(Cl)cc3cn[nH]c23)CC1` [Compound P-0662, (S)-4-(1-(5-chloro-1H-indazol-7-yl)-1-hydroxy-2-methylpropan-2-yl)-N,N-dimethylpiperidine-1-carboxamide], for which the IC50 in assay [1] and in assay [2] was 0.0001 to 10 µM in each case.
As to `CC(C)(C1CCN(C(=O)C(F)(F)F)CC1)[C@H](O)c1cc(Cl)cc2cn[nH]c12` [Compound P-0663, (S)-1-(4-(1-(5-chloro-1H-indazol-7-yl)-1-hydroxy-2-methylpropan-2-yl)piperidin-1-yl)-2,2,2-trifluoroethan-1-one], the IC50 in assay [1] and in assay [2] was 0.0001 to 10 µM throughout.
On to `CC(C)(C1CCN(C(=O)NCCCO)CC1)[C@H](O)c1cc(Cl)cc2cn[nH]c12` [Compound P-0665, (S)-4-(1-(5-chloro-1H-indazol-7-yl)-1-hydroxy-2-methylpropan-2-yl)-N-(3-hydroxypropyl) piperidine-1-carboxamide], for which the IC50 in assay [1] and in assay [2] was 0.0001 to 10 µM each time.
For `CC(C)(O)CNC(=O)N1CCC(C(C)(C)[C@H](O)c2cc(Cl)cc3cn[nH]c23)CC1` [Compound P-0666, (S)-4-(1-(5-chloro-1H-indazol-7-yl)-1-hydroxy-2-methylpropan-2-yl)-N-(2-hydroxy-methylpropyl) piperidine-1-carboxamide], the IC50 in assay [1] and in assay [2] was 0.0001 to 10 µM throughout.
Regarding `CC(C)(C1CCN(C(=O)NCC2(O)COC2)CC1)[C@H](O)c1cc(Cl)cc2cn[nH]c12` [Compound P-0667, (S)-4-(1-(5-chloro-1H-indazol-7-yl)-1-hydroxy-2-methylpropan-2-yl)-N-((3-hydroxyoxetan-3-yl)methyl)piperidine-1-carboxamide], the IC50 in assay [1] and in assay [2] was 0.0001 to 10 µM in each case.
Consider `C[C@H](CO)NC(=O)N1CCC(C(C)(C)[C@H](O)c2cc(Cl)cc3cn[nH]c23)CC1` [Compound P-0668, 4-((S)-1-(5-chloro-1H-indazol-7-yl)-1-hydroxy-2-methylpropan-2-yl)-N-((R)-1-hydroxypropan-2-yl)piperidine-1-carboxamide], for which the IC50 in assay [1] and in assay [2] was 0.0001 to 10 µM each time.
On to `C[C@@H](CO)NC(=O)N1CCC(C(C)(C)[C@H](O)c2cc(Cl)cc3cn[nH]c23)CC1` [Compound P-0669, 4-((S)-1-(5-chloro-1H-indazol-7-yl)-1-hydroxy-2-methylpropan-2-yl)-N-((S)-1-hydroxypropan-2-yl)piperidine-1-carboxamide], for which the IC50 in assay [1] and in assay [2] was 0.0001 to 10 µM throughout.
Regarding `C[C@@H](O)CNC(=O)N1CCC(C(C)(C)[C@H](O)c2cc(Cl)cc3cn[nH]c23)CC1` [Compound P-0670, 4-((S)-1-(5-chloro-1H-indazol-7-yl)-1-hydroxy-2-methylpropan-2-yl)-N-((R)-2-hydroxypropyl) piperidine-1-carboxamide], the IC50 in assay [1] and in assay [2] was 0.0001 to 10 µM throughout.
As for `C[C@H](O)CNC(=O)N1CCC(C(C)(C)[C@H](O)c2cc(Cl)cc3cn[nH]c23)CC1` [Compound P-0671, 4-((S)-1-(5-chloro-1H-indazol-7-yl)-1-hydroxy-2-methylpropan-2-yl)-N-((S)-2-hydroxypropyl) piperidine-1-carboxamide], the IC50 in assay [1] and in assay [2] was 0.0001 to 10 µM throughout.
For `CC(C)(C1CCN(C(=O)NC2(C#N)CC2)CC1)[C@H](O)c1cc(Cl)cc2cn[nH]c12` [Compound P-0672, (S)-4-(1-(5-chloro-1H-indazol-7-yl)-1-hydroxy-2-methylpropan-2-yl)-N-(1-cyanocyclopropyl) piperidine-l-carboxamide], the IC50 in assay [1] and in assay [2] was 0.0001 to 10 µM in each case.
Consider `CC(C)(C1CCN(C(=O)NCC(=O)O)CC1)[C@H](O)c1cc(Cl)cc2cn[nH]c12` [Compound P-0673, (S)-(4-(1-(5-chloro-1H-indazol-7-yl)-1-hydroxy-2-methylpropan-2-yl)piperidine-1-carbonyl)glycine], for which the IC50 in assay [1] and in assay [2] was 0.0001 to 10 µM each time.
Consider `CC(C)(C1CCN(C(=O)NC2CCS(=O)(=O)CC2)CC1)[C@H](O)c1cc(Cl)cc2cn[nH]c12` [Compound P-0674, (S)-4-(1-(5-chloro-1H-indazol-7-yl)-1-hydroxy-2-methylpropan-2-yl)-N-(1,1-dioxidotetrahydro-2H-thiopyran-4-yl)piperidine-1-carboxamide], for which the IC50 in assay [1] and in assay [2] was 0.0001 to 10 µM each time.
Consider `CC(C)(C1CCN(C(=O)NCC2(C#N)CC2)CC1)[C@H](O)c1cc(Cl)cc2cn[nH]c12` [Compound P-0675, (S)-4-(1-(5-chloro-1H-indazol-7-yl)-1-hydroxy-2-methylpropan-2-yl)-N-((1-cyanocyclopropyl)methyl)piperidine-1-carboxamide], for which the IC50 in assay [1] and in assay [2] was 0.0001 to 10 µM in each case.
Take `CN1CCN(Cc2ccc(NC(=O)N3CCC(C(C)(C)[C@H](O)c4cc(Cl)cc5cn[nH]c45)CC3)cc2)CC1` [Compound P-0676, (S)-4-(1-(5-chloro-1H-indazol-7-yl)-1-hydroxy-2-methylpropan-2-yl)-N-(4-((4-methylpiperazin-1-yl)methyl)phenyl) piperidine-1-carboxamide]: the IC50 in assay [1] and in assay [2] was 0.0001 to 10 µM in each case.
Regarding `CC(C)(C1CCN(C(=O)NCCNS(C)(=O)=O)CC1)[C@H](O)c1cc(Cl)cc2cn[nH]c12` [Compound P-0677, (S)-4-(1-(5-chloro-1H-indazol-7-yl)-1-hydroxy-2-methylpropan-2-yl)-N-(2-(methylsulfonamido)ethyl)piperidine-1-carboxamide], the IC50 in assay [1] and in assay [2] was 0.0001 to 10 µM in each case.
In the case of `CC(C)(C1CCN(C(=O)NCCN2CCCS2(=O)=O)CC1)[C@H](O)c1cc(Cl)cc2cn[nH]c12` [Compound P-0678, (S)-4-(1-(5-chloro-1H-indazol-7-yl)-1-hydroxy-2-methylpropan-2-yl)-N-(2-(1,1-dioxidoisothiazolidin-2-yl)ethyl)piperidine-1-carboxamide], the IC50 in assay [1] and in assay [2] was 0.0001 to 10 µM in each case.

The values above are taken from patent US10508085B2, “Compounds and methods for IDO and TDO modulation, and indications therefor” (Plexxikon Inc., priority 2016, dated 2019).
